US8048889B2, “3,4-disubstituted coumarin and quinolone compounds” (XTL Biopharmaceuticals Ltd., priority 2005, dated 2011)

Experiments:
[1] = tested on: HCV Replicon (HCV IRES driven luciferase reporter in Huh-Luc-Neo cells); test: HCV Replicon Luciferase Assay; type: cell-based; conditions: Hepatitis C virus, 48 h, no unit in table, hit threshold in μM
Procedure: (§1) The identification of inhibitors of HCV replication and/or proliferation has been facilitated by the development of a cell based system to study HCV replication and assay for HCV inhibitors. Inhibition of HCV replication may be performed using the HCV Replicon Assay developed in the laboratories of Bartenschlager (Lohman et al, Science 285, 110-113, 1999) and Rice (Blight et al, Science 290, 1972-1974, 2000). The assay is performed using the Huh-Luc-Neo cell line (Lohman et al, Science 285, 110-113, 1999). Huh-Luc-Neo cells are a human hepatoma cell line (Huh-7) stably expressing a bi-cistronic subgenomic replicon containing the HCV IRES in which the structural proteins of HCV had been deleted and replaced by a construct containing sequences coding for the firefly luciferase reporter gene, the neomycin selectable marker and the EMCV IRES to direct expression of a truncated HCV genome expressing the […] NS3, NS4A, NS4B, NS5A, and NS5B. HCV targets through which inhibitors could act to inhibit replication include the NS3 protease, the helicase/ATPase, NS5A, the NS5B- RNA dependent RNA polymerase, and the HCV IRES.
(§2) Expression of HCV IRES driven luciferase reporter activity and HCV RNA is measured to obtain indirect and direct measures of replication of HCV RNA respectively. Inhibitors of HCV replication and/or proliferation are determined by initially identifying molecules that inhibit expression of the HCV IRES driven luciferase reporter in this HCV Replicon Luciferase Assay. Cell viability assays and control cell based luciferase assays are then run on hits identified in the HCV Replicon Luciferase Assay to eliminate cytoxic compounds and non-specific compounds which act by inhibiting the luciferase enzyme.
(§3) Day 0 Cell Seeding and Compound Treatment: Huh-Luc-Neo Cells are seeded at 25,000/well in an opaque-walled 96 plate with Growth Medium (DMEM phenol red free+PS+2 mM glutamine; 100 μl/well). The compounds to be tested are added to the experimental wells (10 μl/well at 10× assay concentration) and the cells are then incubated (5% CO2, 37° C.) for 48 h.
(§4) Day 2 Reagent Preparation and Luciferase Assay: The Bright-Glo Luciferase Assay Buffer (Promega) is thawed and equilibrated to room temperature prior to use. The lyophilized Bright-Glo Luciferase Assay Substrate is equilibrated to room temperature prior to use. 10 ml of Bright-Glo Luciferase Assay Buffer is transferred to 1 vial of Bright-Glo Luciferase Assay Substrate bottle and mixed by gently with a Vortex. 100 ul of Bright-Glo Luciferase Assay reagent (Bright-Glo Luciferase Assay Buffer+Bright-Glo Luciferase Assay Substrate Mixture) is added to each well. The well contents are mixed for 5 min. on an orbital shaker at room temperature to induce cell lysis and the luminescence is then measured using a luminometer. The data is analyzed and IC50s are determined using GraphPad Prism 4 software. Hits validated in the Replicon Luciferase assay have IC50s<8.0 μM and show<30% inhibition of Cell Viability at a compound concentration of 100 μM (Cell Titer Glow Assay, cell viability assay conditions identical to HCV Replicon Luciferase Assay conditions).

[2] = tested on: HCV Replicon (HCV RNA in Huh-Luc-Neo cells); test: HCV Replicon RNA Assay (Taqman); type: cell-based, Hepatitis C virus; conditions: compound added day 0 and day 1, no unit in table, hit threshold in μM; for IC50: Hepatitis C virus
Procedure: as §1, §2
as §3, with “Day 0,” for “Day 0”, “37° C.).” for “37° C.) for 48 h.”
Day 1, Media Change and Compound Treatment: 24 hours after the initial compound treatment the cell culture media is aspirated from the wells and fresh Growth Medium is added (DMEM phenol red free+PS+2 mM glutamine; 100 μl/well). The compounds to be tested are then added to the appropriate experimental wells (10 μl/well at 10 × assay concentration) and the cells are then incubated (5% CO2, 37° C.) for an additional 24 hrs.
Day 2, RNA Isolation and cDNA Synthesis: The cells are washed with 1× Phosphate Buffered Saline (PBS) once.
(§5) Day 3, Quantitative PCR Based Measurement of HCV RNA (Taqman Assay): Quantitative PCR analysis to measure HCV RNA expression from cDNA synthesized on Day 2 is performed using the ABI 9700 HT Sequence Detection System (Applied Biosystems) as previously described (Lohman et al, Science 285, 110-113, 1999). The data is analyzed and IC50s are determined using GraphPad Prism 4 software. Hits validated in the Replicon RNA Assay have IC50s<8.0 μM and show <30% inhibition of Cell Viability at a compound concentration of 50 μM (Cell Titer Glow Assay, cell viability assay conditions identical to HCV Replicon RNA Assay conditions).

Huh-Luc-Neo cells = test: CellTiter-Glo Cell Viability Assay; type: cell-based, human; conditions: for Toxicity % Inhibition at 50 uM (2 doses): inhibition of cell viability at 50 uM, conditions as in Replicon RNA Assay; for Toxicity % Inhibition at 100 um (1 dose): inhibition of cell viability at 100 um, conditions as in Replicon Luciferase Assay (48 h)
Procedure: as §4, §5
as §3, with “Day 0,” for “Day 0”, “100 ul/well).” for “100 μl/well).”, “tested for inhibition of cell viability” for “tested”
Day 2, Reagent Preparation and Assay: The CellTiter-Glo Buffer is thawed and equilibrated to room temperature prior to use. The lyophilized CellTiter-Glo Substrate is equilibrated to room temperature prior to use. 10 ml of CeliTiter-Glo Buffer is transferred to 1 vial of CellTiter-Glo Substrate and mixed by gently with a Vortex. 100 μl of CellTiter-Glo Assay reagent (CellTiter-Glo Buffer+CellTiter-Glo Substrate Mixture) is added to each well. The well contents are mixed for 5 min. on an orbital shaker at room temperature to induce cell lysis and the luminescence is then measured using a luminometer.

With O=c1oc2ccccc2c(OCc2cccc(C(F)(F)F)c2)c1Cc1cccc(C(F)(F)F)c1 [VQ_31711] the IC50 [1] was 5.16 µM, the IC50 [2] was 0.12 µM and the “Toxicity % Inhibition at 50 uM (2 doses)” value (Huh-Luc-Neo cells) was 4.3%. The “Toxicity % Inhibition at 100 um (1 dose)” value (Huh-Luc-Neo cells) was 4.6%.
O=c1oc2ccccc2c(OCc2ccc(C(F)(F)F)cc2)c1Cc1ccc(C(F)(F)F)cc1 [VQ_31712] was tested, and the IC50 [1] was 4.92 µM, the IC50 [2] was over 30 µM and the “Toxicity % Inhibition at 50 uM (2 doses)” value (Huh-Luc-Neo cells) was 10.0%. The “Toxicity % Inhibition at 100 um (1 dose)” value (Huh-Luc-Neo cells) was 16.6%.
For Cc1ccc(COc2c(Cc3ccc(C)cc3)c(=O)oc3ccccc23)cc1 [VQ_31715], the IC50 [1] was 2.8 µM, the IC50 [2] was 0.55 µM and the “Toxicity % Inhibition at 50 uM (2 doses)” value (Huh-Luc-Neo cells) was 13.4%. For the same compound, the “Toxicity % Inhibition at 100 um (1 dose)” value (Huh-Luc-Neo cells) was 53.4%.
COc1ccc2c(OCc3cccc(C)c3)c(Cc3cccc(C)c3)c(=O)oc2c1 [VQ_31729] was tested, and the IC50 [1] was 3.53 µM, the IC50 [2] was 0.36 µM and the “Toxicity % Inhibition at 50 uM (2 doses)” value (Huh-Luc-Neo cells) was 5.1%. For the same compound, the “Toxicity % Inhibition at 100 um (1 dose)” value (Huh-Luc-Neo cells) was 3.0%.
With COc1ccc2c(OCc3cccc(Cl)c3)c(Cc3cccc(Cl)c3)c(=O)oc2c1 [VQ_31734] the IC50 [1] was 3.84 µM, the IC50 [2] was 0.67 µM and the “Toxicity % Inhibition at 50 uM (2 doses)” value (Huh-Luc-Neo cells) was 0.7%. The “Toxicity % Inhibition at 100 um (1 dose)” value (Huh-Luc-Neo cells) was 4.3%.
With COc1ccc2c(OCc3ccccc3C)c(Cc3ccccc3C)c(=O)oc2c1 [VQ_31738] the IC50 [1] was 5.44 µM, the IC50 [2] was 0.21 µM and the “Toxicity % Inhibition at 50 uM (2 doses)” value (Huh-Luc-Neo cells) was 6.1%. For the same compound, the “Toxicity % Inhibition at 100 um (1 dose)” value (Huh-Luc-Neo cells) was 23.6%.
For COc1ccc2c(OCc3ccc(F)cc3F)c(Cc3ccc(F)cc3F)c(=O)oc2c1 [VQ_31744], the IC50 [1] was 4.5 µM, the IC50 [2] was 0.28 µM and the “Toxicity % Inhibition at 50 uM (2 doses)” value (Huh-Luc-Neo cells) was 7.0%. The “Toxicity % Inhibition at 100 um (1 dose)” value (Huh-Luc-Neo cells) was 10.9%.
For COc1ccc2c(OCc3ccc(F)c(F)c3)c(Cc3ccc(F)c(F)c3)c(=O)oc2c1 [VQ_31748], the IC50 [1] was 5.38 µM, the IC50 [2] was 1.97 µM and the “Toxicity % Inhibition at 50 uM (2 doses)” value (Huh-Luc-Neo cells) was 4.9%. The “Toxicity % Inhibition at 100 um (1 dose)” value (Huh-Luc-Neo cells) was 10.0%.
For COc1ccc2c(OCc3cccc(C(F)(F)F)c3)c(Cc3cccc(C(F)(F)F)c3)c(=O)oc2c1 [VQ_31754], the IC50 [1] was 5.45 µM, the IC50 [2] was 5.35 µM and the “Toxicity % Inhibition at 50 uM (2 doses)” value (Huh-Luc-Neo cells) was 1.9%. The “Toxicity % Inhibition at 100 um (1 dose)” value (Huh-Luc-Neo cells) was 2.5%.
For COc1ccc2c(OCc3ccc(C(F)(F)F)cc3)c(Cc3ccc(C(F)(F)F)cc3)c(=O)oc2c1 [VQ_31758], the IC50 [1] was 6.16 µM, the IC50 [2] was 5.24 µM and the “Toxicity % Inhibition at 50 uM (2 doses)” value (Huh-Luc-Neo cells) was 2.6%. For the same compound, the “Toxicity % Inhibition at 100 um (1 dose)” value (Huh-Luc-Neo cells) was 14.7%.
For COc1ccc2c(OCc3ccc(C)cc3)c(Cc3ccc(C)cc3)c(=O)oc2c1 [VQ_31763], the IC50 [1] was 8.29 µM, the IC50 [2] was 0.43 µM and the “Toxicity % Inhibition at 50 uM (2 doses)” value (Huh-Luc-Neo cells) was 6.5%. For the same compound, the “Toxicity % Inhibition at 100 um (1 dose)” value (Huh-Luc-Neo cells) was 4.6%.
Cc1cc2oc(=O)c(Cc3ccc(F)cc3F)c(OCc3ccc(F)cc3F)c2cc1C [VQ_32806] was tested, and the IC50 [1] was 5.57 µM, the IC50 [2] was 1.4 µM and the “Toxicity % Inhibition at 50 uM (2 doses)” value (Huh-Luc-Neo cells) was 8.3%. For the same compound, the “Toxicity % Inhibition at 100 um (1 dose)” value (Huh-Luc-Neo cells) was 16.5%.
Cc1ccc(COc2c(Cc3ccc(C)cc3)c(=O)n(C)c3ccccc23)cc1 [VQ_32833] was tested, and the IC50 [1] was 2.89 µM, the IC50 [2] was 0.58 µM and the “Toxicity % Inhibition at 50 uM (2 doses)” value (Huh-Luc-Neo cells) was 20.7%. The “Toxicity % Inhibition at 100 um (1 dose)” value (Huh-Luc-Neo cells) was 34.6%.
With Cc1ccc(COc2c(Cc3ccc(C)cc3)c(=O)n(Cc3ccc(C)cc3)c3ccccc23)cc1 [VQ_33645] the IC50 [1] was 2.33 µM, the IC50 [2] was over 30 µM and the “Toxicity % Inhibition at 50 uM (2 doses)” value (Huh-Luc-Neo cells) was 17.2%. For the same compound, the “Toxicity % Inhibition at 100 um (1 dose)” value (Huh-Luc-Neo cells) was 21.5%.
For Cn1c(=O)c(Cc2ccc(Cl)c(Cl)c2)c(OCc2ccc(Cl)c(Cl)c2)c2ccccc21 [VQ_34453], the IC50 [1] was 8.5 µM, the IC50 [2] was 1.97 µM and the “Toxicity % Inhibition at 50 uM (2 doses)” value (Huh-Luc-Neo cells) was 12.2%. The “Toxicity % Inhibition at 100 um (1 dose)” value (Huh-Luc-Neo cells) was 24.6%.
For O=c1[nH]c2ccccc2c(OCc2ccc(F)cc2)c1Cc1ccc(F)cc1 [VQ_35018], the IC50 [1] was 1 µM, the “TaqMan IC50” value [2] was “Inactive” and the “Toxicity % Inhibition at 50 uM (2 doses)” value (Huh-Luc-Neo cells) was 12.3%. For the same compound, the “Toxicity % Inhibition at 100 um (1 dose)” value (Huh-Luc-Neo cells) was 10.0%.
With Cc1cccc(COc2c(Cc3cccc(C)c3)c(=O)[nH]c3ccccc23)c1 [VQ_35027] the IC50 [1] was 2.1 µM, the “TaqMan IC50” value [2] was “Inactive” and the “Toxicity % Inhibition at 50 uM (2 doses)” value (Huh-Luc-Neo cells) was 12.5%. For the same compound, the “Toxicity % Inhibition at 100 um (1 dose)” value (Huh-Luc-Neo cells) was 4.6%.
